Test results reported in patent US10760110B2, “Antibiotic testing and screening system” (priority 2017, dated 2020).
Like-named read-outs stand apart in the source and are kept apart here.

Columns and labels:
[1] = test system: K. pneumoniae NVT1001 and its ΔompK35/36 and/or ΔramR mutants; assay: Etest MIC, OmpK35/36 loss and AcrAB-TolC overexpression (ΔramR) strains (Table 6); format: cell-based, Klebsiella pneumoniae; settings: Klebsiella pneumoniae
Procedure, shortened: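 Etest MICs against K. pneumoniae NVT1001 and its ΔompK35/36 and/or ΔramR mutants, rounded up to the next two-fold value. For NVT1001 carrying pACYC177-blaOXA-48, ceftazidime and cefotaxime MICs by CLSI broth microdilution, interpreted with CLSI 2017 breakpoints.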

[2] = test system: K. pneumoniae NVT1001 ΔramRΔompK35/36 mutant and its revertants; assay: Etest MIC, ΔramRΔompK35/36 mutant and its revertants (Table 7); format: cell-based; settings: Klebsiella pneumoniae
[3] = test system: K. pneumoniae NVT1001 and ΔramR strains with tet resistance gene plasmids; assay: Etest MIC of tetracyclines, AcrAB-TolC overexpression (ΔramR) and/or tet resistance gene (Table 14); format: cell-based, Klebsiella pneumoniae; settings: for MIC: Klebsiella pneumoniae
Experimental: DNA fragments of the resistance genes along with their flanking regions were amplified from clinical plasmids via PCR with specific primer pairs. The resulting PCR fragments were digested and then cloned into the plasmid pACYC177 or pACYC184. The resulting plasmids were then transformed into K. pneumoniae strain NVT1001 via electroporation. The recombinant bacteria were plated onto LB agar plates containing kanamycin (50 mg/L) or chloramphenicol (50 mg/L), and the presence of the cloned gene was confirmed via PCR and DNA sequencing.
(§1) The MICs of antibiotics were determined using the Etest (Biodisk AB, Sweden) according to the manufacturer's instructions. The MICs from the Etest, which fall between standard two-fold dilutions, were rounded up to the next highest two-fold value. The MICs of ceftazidime and cefotaxime against K. pneumoniae NVT1001 harbouring the pACYC177 plasmid with blaOXA-48 were further determined using a broth microdilution test according to the recommendations of the CLSI,^25 and the results were interpreted according to the breakpoints established by the CLSI in 2017.^25 Meanwhile, due to the lack of CLSI breakpoints in 2016 and 2017, the results for cephalothin were interpreted according to the breakpoints established by the CLSI in 2015,^26 and the results for moxifloxacin were interpreted according to the breakpoints established by the EUCAST in 2017.^27

[4] = test system: A. baumannii KW1 and its AdeR/AdeS mutants; assay: Etest MIC, AdeABC overexpression via AdeR or AdeS mutation (Table 16); format: cell-based, Acinetobacter baumannii; settings: Acinetobacter baumannii
Excerpt: DNA fragments of the entire adeR, adeS, gyrA and parC along with their flanking regions were amplified from A. baumannii KW1 using PCR with specific primer pairs and then cloned into plasmid pUT-KB. The QuikChange site-directed mutagenesis kit (Stratagene) was used to generate mutations in the adeR, adeS, gyrA and parC genes in the plasmids using the methods described by the manufacturer. For homologous recombination, plasmids containing mutations in the adeR, adeS, gyrA or parC gene were transformed into E. coli S17-1 λpir^23 via electroporation and mobilized into A. baumannii KW1 via conjugation. Single-crossover strains were selected from Luria-Bertani (LB) plates supplemented with cefotaxime (1 μg/ml) and kanamycin ([…]), as the growth of non-A. baumannii contaminants is suppressed by cefotaxime (1 μg/ml). The kanamycin-resistant transconjugants were selected and the insertion of plasmids was verified via PCR. After incubation in 20 ml brain heart infusion (BHI) broth for 6 hours in the absence of kanamycin at 37° C., the fully grown cultures were spread onto LB plates supplemented with 10% sucrose. After the double crossover occurred, the sucrose-resistant and kanamycin-susceptible colonies were selected, and the gene mutations were confirmed via PCR.
as §1

[5] = test system: A. baumannii KW1 strains with tet resistance gene plasmids; assay: Etest MIC of tetracyclines, tet resistance gene (Table 20); format: cell-based, Acinetobacter baumannii; settings: for MIC: Acinetobacter baumannii
Experimental: DNA fragments of the resistance genes along with their flanking regions were amplified from clinical plasmids via PCR with specific primer pairs. The resulting PCR fragments were digested and then cloned into the plasmid pYMAb5 or pYMAb5Tc. The resulting plasmids were then transformed into A. baumannii KW1 via electroporation.
as §1

CN(C)c1cc(NC(=O)CNC(C)(C)C)c(O)c2c1C[C@H]1C[C@H]3[C@H](N(C)C)C(O)=C(C(N)=O)C(=O)[C@@]3(O)C(O)=C1C2=O [Tigecycline, tigecycline]
32 µg/mL: MIC ([3]; ΔramR, Tet(A) on pACYC177)
1 µg/mL: MIC ([1]; WT, NVT1001, read-out: MIC) | MIC ([1]; Δ35, ΔompK35 mutant) | MIC ([1]; Δ35/36, ΔompK35/36 mutant) | MIC ([1]; Δ36, ΔompK36 mutant) | MIC ([2]; ΔramRΔompK35/36::ramR revertant) | MIC ([2]; ΔramRΔompK35/36::ramR::ompK35/36 revertant) | MIC ([2]; ΔramRΔompK35/36::ramR::ompK35 revertant) | MIC ([2]; ΔramRΔompK35/36::ramR::ompK36 revertant) | MIC ([3]; NVT1001, Tet(B) on pACYC177, read-out: MIC) | MIC ([3]; NVT1001, Tet(C) on pACYC177, read-out: MIC) | MIC ([3]; NVT1001, Tet(D) on pACYC177, read-out: MIC) | MIC ([3]; NVT1001, Tet(M) on pACYC177, read-out: MIC) | MIC ([3]; NVT1001, no supplemental plasmid, read-out: MIC) | MIC ([5]; KW1, Tet(A) on pYMAb5)
8 fold: increase in the MIC ([3]; Tet(A) production) | increase in the MIC ([3]; {})
8 µg/mL: MIC ([1]; ΔramR mutant) | MIC ([1]; ΔramRΔ35, ΔramRΔompK35 mutant) | MIC ([1]; ΔramRΔ35/36, ΔramRΔompK35/36 mutant) | MIC ([1]; ΔramRΔ36, ΔramRΔompK36 mutant) | MIC ([2]; ΔramRΔompK35/36::ompK35/36 revertant) | MIC ([2]; ΔramRΔompK35/36::ompK35 revertant) | MIC ([2]; ΔramRΔompK35/36::ompK36 revertant) | MIC ([2]; ΔramRΔompK35/36 mutant) | MIC ([3]; NVT1001, Tet(A) on pACYC177, read-out: MIC) | MIC ([3]; ΔramR, Tet(B) on pACYC177) | MIC ([3]; ΔramR, Tet(C) on pACYC177) | MIC ([3]; ΔramR, Tet(D) on pACYC177) | MIC ([3]; ΔramR, Tet(M) on pACYC177) | MIC ([3]; ΔramR, no supplemental plasmid)
3 µg/mL: MIC ([4]; A91V mutant (AdeR)) | MIC ([4]; G30D mutant (AdeS)) | MIC ([4]; T153M mutant (AdeS))
0.38 µg/mL: MIC ([5]; KW1, Tet(B) on pYMAb5) | MIC ([5]; KW1, Tet(M) on pYMAb5) | MIC ([5]; KW1, no supplemental plasmid) | MIC ([5]; KW1 with shuttle vector pYMAb5)
no observable effects: effects on the MIC ([3]; production of Tet(B), Tet(C), Tet(D) or Tet(M), with or without ΔramR) | effects on the MIC ([5]; production of Tet(B) or Tet(M))
0.25 µg/mL: MIC ([4]; KW1, read-out: MIC)
1.5 µg/mL: MIC ([4]; P116L mutant (AdeR))
2 µg/mL: MIC ([4]; A94V mutant (AdeS)) | MIC ([4]; D20N mutant (AdeR)) | MIC ([4]; R152K mutant (AdeS))
